{
  "source": "patent US11731942B1",
  "about": "“3-substituted quinolin-2-one compounds as antibacterial agents” (KING FAISAL UNIVERSITY, priority 2023, dated 2023)",
  "key": {"[1]": {"tested_on": "Escherichia coli MTCC 443", "assay": "In vitro antibacterial activity (CLSI M07-A10 dilution), MIC", "assay_type": "cell-based", "conditions": "MTCC443"}, "[2]": {"tested_on": "Klebsiella pneumonia MTCC 618", "assay": "In vitro antibacterial activity (CLSI M07-A10 dilution), MIC", "assay_type": "cell-based", "conditions": "Klebsiella pneumoniae, MTCC618"}, "[3]": {"tested_on": "Staphylococcus epidermidis", "assay": "In vitro antibacterial activity (CLSI M07-A10 dilution), MIC", "assay_type": "cell-based"}, "[4]": {"tested_on": "Staphylococcus aureus ATCC BAA-1556 (MERSA resistant)", "assay": "In vitro antibacterial activity (CLSI M07-A10 dilution), MIC", "assay_type": "cell-based", "conditions": "ATCCBAA1556"}, "[5]": {"tested_on": "Enterococcus faecium ATCC 51559 (VRE resistant)", "assay": "In vitro antibacterial activity (CLSI M07-A10 dilution), MIC", "assay_type": "cell-based"}, "[6]": {"tested_on": "Enterococcus faecium ATCC 35667", "assay": "In vitro antibacterial activity (CLSI M07-A10 dilution), MIC", "assay_type": "cell-based", "conditions": "ATCC35667"}, "[7]": {"tested_on": "H37Rv type of M. tuberculosis strains", "assay": "Anti-tubercular alamar blue microplate MIC", "assay_type": "cell-based", "conditions": "168 h, mycobacterium tuberculosis H37Rv strain, 7 days at 37° C., read-out: anti-mycobacterial activity (MIC)"}, "[8]": {"molecular_target": "T1, E. coli DNA Gyrase (Escherichia coli, UniProt P0AES4+P0AES6)", "T1 construct": "purchased Inspiralis", "T1 sequence (P0AES4 whole entry, one chain of several)": "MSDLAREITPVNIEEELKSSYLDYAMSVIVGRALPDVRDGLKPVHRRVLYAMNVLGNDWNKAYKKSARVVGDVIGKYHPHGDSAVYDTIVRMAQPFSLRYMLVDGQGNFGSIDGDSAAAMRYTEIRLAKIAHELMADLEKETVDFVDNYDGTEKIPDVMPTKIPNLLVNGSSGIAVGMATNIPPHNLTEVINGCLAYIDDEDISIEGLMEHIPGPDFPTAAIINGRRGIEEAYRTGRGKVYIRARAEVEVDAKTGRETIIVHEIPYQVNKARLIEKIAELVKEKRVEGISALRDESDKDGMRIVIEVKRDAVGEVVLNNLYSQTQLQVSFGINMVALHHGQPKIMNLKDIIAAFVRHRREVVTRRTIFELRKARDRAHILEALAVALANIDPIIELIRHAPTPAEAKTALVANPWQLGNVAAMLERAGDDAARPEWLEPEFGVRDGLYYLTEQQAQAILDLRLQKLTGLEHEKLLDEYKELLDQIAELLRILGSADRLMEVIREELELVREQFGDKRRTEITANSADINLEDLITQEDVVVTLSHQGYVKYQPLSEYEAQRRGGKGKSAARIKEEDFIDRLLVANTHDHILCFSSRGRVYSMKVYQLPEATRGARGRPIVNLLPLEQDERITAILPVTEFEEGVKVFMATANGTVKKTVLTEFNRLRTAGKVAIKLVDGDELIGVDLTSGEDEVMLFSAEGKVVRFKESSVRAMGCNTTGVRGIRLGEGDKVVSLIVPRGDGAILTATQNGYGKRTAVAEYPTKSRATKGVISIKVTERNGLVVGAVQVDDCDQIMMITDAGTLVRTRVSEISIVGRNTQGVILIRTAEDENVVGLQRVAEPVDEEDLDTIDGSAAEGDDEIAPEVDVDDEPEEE", "assay": "Inspiralis DNA gyrase inhibition assay", "assay_type": "biochemical", "procedure": "Inhibitory potencies were investigated utilizing the Inspiralis assay on streptavidin-coated 96-well microtiter plates. First, the plates were rehydrated with buffer (20 mM Tris-HCl with pH 7.6, 0.01% w/v BSA, 0.05% v/v Tween 20, 137 mM NaCl) and the biotinylated oligonucleotide was then immobilized. After washing off the unbound oligonucleotide, the enzyme test was performed. The reaction volume of 30 μL in buffer (35 mM Tris×HCl with pH 7.5, 4 mM MgCl2, 24 mM KCl, 2 mM DTT, 1.8 mM spermidine, 1 mM ATP, 6.5% w/v glycerol, 0.1 mg/mL albumin) contained 1.5 U of DNA gyrase from E. coli, 0.75 μg of relaxed pNO1 plasmid, and 3 μL solution of the inhibitor in 10% DMSO and 0.008% Tween 20. Reaction solutions were incubated at 37° C. for 30 min. After that, the TF buffer (50 mM NaOAc with pH 5.0, 50 mM NaCl and 50 mM MgCl2) was added to terminate the enzymatic reaction. After additional incubation for 30 min at rt, during which biotinoligonucleotide-plasmid triplex was formed, the unbound plasmid was washed off using TF buffer and SybrGOLD in T10 buffer (10 mM Tris HCl with pH 8.0 and 1 mM EDTA) was added. The fluorescence was measured with a microplate reader (BioTek Synergy H4, excitation: 485 nm, emission: 535 nm). Initial screening was done at 100 or 10 μM concentration of inhibitors. […] GraphPad Prism software was used to calculate the IC50 values. […]"}, "[9]": {"tested_on": "Bacillus subtilis MTCC 441", "assay": "In vitro antibacterial activity (CLSI M07-A10 dilution), MIC", "assay_type": "cell-based", "conditions": "MTCC441"}, "[10]": {"tested_on": "Staphylococcus aureus ATCC 29213", "assay": "In vitro antibacterial activity (CLSI M07-A10 dilution), MIC", "assay_type": "cell-based", "conditions": "ATCC29213"}, "[11]": {"tested_on": "Pseudomonas aeruginosa MTCC 741", "assay": "In vitro antibacterial activity (CLSI M07-A10 dilution), MIC", "assay_type": "cell-based", "conditions": "MTCC741"}},
  "note": "Read-outs that look alike come from different tables or passages of the source.",
  "data": [
    {"smiles": "CCCCCN(C)Cc1cc(C(=O)O)ccc1/C=C/C(=O)c1cc2cc(F)cc(NC)c2[nH]c1=O", "note": "[Compound 7, (E)-4-(3-(6-fluoro-8-(methylamino)-2-oxo-1,2-dihydroquinolin-3-yl)-3-oxoprop-1-en-1-yl)-3-((methyl(pentyl)amino)methyl)benzoic acid]", "values": [
      {"measurement": "MIC", "setting": "[1]; Escherichia coli MTCC 443, read-out: MIC", "value": 1, "unit": "µg/mL"},
      {"measurement": "MIC", "setting": "[2]; Klebsiella pneumonia MTCC 618, read-out: MIC", "value": 0.5, "unit": "µg/mL"},
      {"measurement": "MIC", "setting": "[3]; read-out: MIC", "value": 0.5, "unit": "µg/mL"},
      {"measurement": "MIC", "setting": "[4]; Staphylococcus aureus ATCC BAA-1556 (MERSA resistant), read-out: MIC", "value": 0.5, "unit": "µg/mL"},
      {"measurement": "MIC", "setting": "[5]; Enterococcus faecium ATCC 51559 (VRE resistant), read-out: MIC", "value": 0.25, "unit": "µg/mL"},
      {"measurement": "MIC", "setting": "[6]; Enterococcus faecium ATCC 35667, read-out: MIC", "value": 0.25, "unit": "µg/mL"},
      {"measurement": "MIC", "setting": "[7]", "value": 4, "unit": "µg/mL"},
      {"measurement": "IC50", "setting": "[8]", "value": 12, "unit": "nM"},
      {"measurement": "MIC", "setting": "[9]; Bacillus subtilis MTCC 441, read-out: MIC", "value": 0.25, "unit": "µg/mL"},
      {"measurement": "MIC", "setting": "[10]; Staphylococcus aureus ATCC 29213, read-out: MIC", "value": 0.5, "unit": "µg/mL"},
      {"measurement": "MIC", "setting": "[11]; Pseudomonas aeruginosa MTCC 741, read-out: MIC", "value": 0.25, "unit": "µg/mL"}
    ]},
    {"smiles": "CN[C@H](CC(C)C)C(=O)N[C@H]1C(=O)N[C@@H](CC(N)=O)C(=O)N[C@H]2C(=O)N[C@H]3C(=O)N[C@H](C(=O)N[C@H](C(=O)O)c4cc(O)cc(O)c4-c4cc3ccc4O)[C@H](O)c3ccc(c(Cl)c3)Oc3cc2cc(c3O[C@@H]2O[C@H](CO)[C@@H](O)[C@H](O)[C@H]2O[C@H]2C[C@](C)(N)[C@H](O)[C@H](C)O2)Oc2ccc(cc2Cl)[C@H]1O", "note": "[Vancomycin, reference compound]", "values": [
      {"measurement": "MIC", "setting": "[1]; Escherichia coli", "value": "> 128", "unit": "µg/mL"},
      {"measurement": "MIC", "setting": "[2]", "value": "> 128", "unit": "µg/mL"},
      {"measurement": "MIC", "setting": "[3]", "value": 1, "unit": "µg/mL"},
      {"measurement": "MIC", "setting": "[4]; Staphylococcus aureus", "value": 1, "unit": "µg/mL"},
      {"measurement": "MIC", "setting": "[5]; Enterococcus faecium", "value": "> 128", "unit": "µg/mL"},
      {"measurement": "MIC", "setting": "[6]; Enterococcus faecium", "value": 0.5, "unit": "µg/mL"},
      {"measurement": "MIC", "setting": "[9]; Bacillus subtilis", "value": 0.5, "unit": "µg/mL"},
      {"measurement": "MIC", "setting": "[10]; Staphylococcus aureus", "value": 1, "unit": "µg/mL"},
      {"measurement": "MIC", "setting": "[11]; Pseudomonas aeruginosa", "value": "> 128", "unit": "µg/mL"}
    ]}
  ]
}
